From patent publication US20030186817A1, “SUBSTITUTED 2,4-DIAMINO-1,3,5-TRIAZINES, PROCESSES FOR THEIR PREPARATION AND THEIR USE AS HERBICIDES AND PLANT GROWTH REGULATORS” (priority 1998, published 2003)

tested on: Cyperus iria and Echinocloa crus-galli; test: Action on weeds in rice (paddy rice conditions, visual rating); format: in vivo; conditions: dammed height of water 2-3 cm, about three weeks after application; further: test concentration or dose not given here
Text: Typical rice weeds such as Echinocloa crus galli and Cyperus iria are cultivated in a greenhouse under paddy rice conditions ([…] height of water: 2-3 cm). After the treatment, the test plants are set up in a greenhouse under optimum growth conditions and are maintained in this way under these conditions throughout the test period. About three weeks after application, evaluation is made by visual rating of the damage to the plants by comparison with untreated controls.

| Compound | herbicidal activity against rice weeds (visual rating of damage) |
| --- | --- |
| CCC(CCOc1cccc(C)c1)Nc1nc(N)nc(C(C)C)n1 (stereo not drawn) [Example 358] | very good herbicidal activity |
| CC(COCc1ccccc1)Nc1nc(N)nc(C(C)(C)F)n1 (stereo not drawn) [Example 201] | very good herbicidal activity |
| CCC(CCOc1cc(C)cc(C)c1)Nc1nc(N)nc(C(C)C)n1 (stereo not drawn) [Example 340] | very good herbicidal activity |

tested on: Stellaria media, Amaranthus retroflexus, Sinapis avreuse, Avena fatura, Lolium multiflorum and Setaria viridis; test: Post-emergence action against weeds (greenhouse pot test, visual rating); format: in vivo; conditions: three-leaf stage, application rate of 3.0 kg or less of active substance per hectare, 3 to 4 weeks in greenhouse
Method in brief: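 Greenhouse pot plants sown in sandy loam were sprayed at the three-leaf stage, 2–3 weeks after sowing. Compounds were formulated as wettable powders or emulsion concentrates and applied onto green parts at various dosages. Action was rated visually against untreated controls after 3–4 weeks.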

| Compound | herbicidal activity post-emergence (rated visually) |
| --- | --- |
| CCC(CCOc1cccc(C)c1)Nc1nc(N)nc(C(C)C)n1 (stereo not drawn) [Example 358] | good and in most cases very good herbicidal activity |
| CC(COCc1ccccc1)Nc1nc(N)nc(C(C)(C)F)n1 (stereo not drawn) [Example 201] | good and in most cases very good herbicidal activity |
| CCC(CCOc1cc(C)cc(C)c1)Nc1nc(N)nc(C(C)C)n1 (stereo not drawn) [Example 340] | good and in most cases very good herbicidal activity |

tested on: Stellaria media, Amaranthus retroflexus, Sinapis avreuse, Avena fatura, Lolium multiflorum and Setaria viridis; test: Pre-emergence action against weeds (greenhouse pot test, visual rating); format: in vivo; conditions: application rate of 3.0 kg or less of active substance per hectare, trial period of 3 to 4 weeks
Method in brief: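 Seeds in sandy loam were treated pre-emergence by soil-surface application of WP or EC formulations at various dosages in 600–800 L water/ha. After 3–4 weeks in a greenhouse, damage or reduced emergence was rated visually against untreated controls.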

| Compound | herbicidal activity pre-emergence (damage to the plants or negative effect on emergence, rated visually) |
| --- | --- |
| CCC(CCOc1cccc(C)c1)Nc1nc(N)nc(C(C)C)n1 (stereo not drawn) [Example 358] | good and in most cases very good herbicidal activity |
| CC(COCc1ccccc1)Nc1nc(N)nc(C(C)(C)F)n1 (stereo not drawn) [Example 201] | good and in most cases very good herbicidal activity |
| CCC(CCOc1cc(C)cc(C)c1)Nc1nc(N)nc(C(C)C)n1 (stereo not drawn) [Example 340] | good and in most cases very good herbicidal activity |
